# Results as given in patent publication US20090305225A1, “Inhibition of Creatine Uptake to Promote Weight Loss” (priority 2005, published 2009).
# Assay: Body weight after icv CoPP in rats
# Type: in vivo, rat
# Settings: 48 hours after icv injection, 6 animals per group
# Method: All animal handling was approved by and done in accordance with the guidelines and requirements of the University of Vermont Institutional Animal Care Use Committee. Adult male Sprague-Dawley rats (mycoplasma free; 200 g) were purchased from Charles River (Quebec, Canada) and housed in an air-conditioned (23+1° C.) room with lights on for 12 hours daily (starting at 6:00 a.m.) in the University of Vermont Animal Facility. Rats were housed singly in regular cages with free access to Purina Rat Chow (RMH 3000) and water for at least five days prior to surgery. Stereotactic surgery was used to implant chronic indwelling stainless steel cannulae into the third ventricle of the brain under fentanyl/droperidol anesthesia. Coordinates for cannula placement were obtained from the Konig Klippel stereotactic surgery atlas; with the nose bar 2.4 mm below the intraaural line and the vertical micrometer gantry tilted 9 degrees towards the animal, the coordinates were 4.9 mm dorsal to the intraaural line, 5 mm anterior to the intraaural line and 1.1 mm lateral to the midline. A minimum of 5 days later, animals were injected icv with CoPP (which was dissolved in 0.2 N NaOH and the pH adjusted to 7.4-7.8) or other experimental compounds. […] Because of the repetitive dosing regimens, animals were trained for six days prior to the first injection to ready them for injections without anesthesia. […]
compound,measurement,value
"C=Cc1c(C)c2cc3[nH]c(cc4nc(cc5nc(cc1[nH]2)C(C)=C5CCC(=O)[O-])C(CCC(=O)[O-])=C4C)c(C)c3C=C.[Co+2] [CoPP, Cobaltic protoporphyrin IX]",Δ Weight,−29%
